The subject of experiment [1] is canine uterine regenerative cells (mesenchymal stem cell populations obtained from canine uterine tissue). Put plainly: Clumping of thawed previously-cryopreserved cells in saline bags with candidate anti-clumping agents. The class given is cell-based. The procedure: The cells used in this Example were purified mesenchymal stem cell populations obtained from canine uterine tissue (from passage 5). The cells were frozen in cryovials in 2% DMSO in VetStarch. The frozen cell samples were provided as 2 mL aliquots with a cell density of 10 million cells/mL. Cells from 3 different canine donors were included n the testing, labeled herein as Donor1; Donor2 and Donor3.
Experiments were performed in 50 mL bags commonly used for saline solutions to be administered to the bloodstream of patients. The experimental volume for the prepared cell suspension was between 5-10 mL depending on the run. Chemicals tested for their anti-clumping ability included dextrose, hydroxyethyl starch, and trehalose. Concentrations of these chemicals varied between experiments. Solutions of anti-clumping agents were prepared then injected into the bags. Concentration and volumes were computed so that targeted concentrations of anti-clumping agents were reached once the cells were injected in the bag. Volumes were chosen so that the cells were at one million cells/mL after preparation of the final composition in the bags.
Cryovials containing the cells were thawed in a 37° C. water bath until ice crystals just thawed. Cells were drawn out of the vial through a needle septum of the vial with an 18 gauge needle and slowly added to the bag through a needle septum of the bag so as not to lyse the cells. The vial was then washed with saline and this wash volume was also carefully injected into the bag through the needle septum.

Experiment [2] shares this test system. In words: Post-bag cell viability by trypan blue staining. The class given is cell-based. The procedure: After time in the bag had expired, the cells were carefully removed from the bag with a syringe and 18 gauge needles. This volume was carefully placed in a 50 mL conical flask. It was mixed to ensure even distribution of cells, then mixed 1:1 with trypan blue and counted to determine viability. The volume was then centrifuged at 400 g for 5 minutes, supernatant aspirated, and resuspended in 2mL complete media. 1 mL of this cell suspension was then plated into a T25 flask. 24 hours later, the plates were observed and the condition of the cells noted.

Setting [3] is: Donor2 cells, 1 million/mL, trehalose 1.65%.
[4] abbreviates: Donor2 cells, 1 million/mL, trehalose 3.3%.
Where [5] appears, read: summary, previously-cryopreserved cells after thawing.

Structures are written as SMILES.

Consider one compound from patent US20160089401A1, “USES OF TREHALOSE IN CELL SUSPENSIONS” (Cook General Biotechnology LLC, priority 2014, published 2016).

As to `OC[C@H]1O[C@H](O[C@H]2O[C@H](CO)[C@@H](O)[C@H](O)[C@H]2O)[C@H](O)[C@@H](O)[C@@H]1O` [trehalose, (2R,3S,4S,5R,6R)-2-(hydroxymethyl)-6-[(2R,3R,4S,5S,6R)-3,4,5-trihydroxy-6-(hydroxymethyl)oxan-2-yl]oxyoxane-3,4,5-triol], the “clumps after 80 minutes” value in experiment [1] (Donor1 cells (section 1.7 run), 1 million/mL, trehalose 3.3%) was “essentially all clumps were very small and barely visible with the exception of one or two slightly larger clumps”; in experiment [1] (Donor1 cells, 1 million/mL, trehalose 3.3% in final preparation) it was “no clumps formed”; in experiment [1] (setting [3]), “a few stringy clumps”; in experiment [1] (setting [4]), “only several clumps and they remained small”; in experiment [1] (Donor3 cells, 1 million/mL, trehalose 3.3%), “only several very small clumps and they were still barely visible”. Also, in experiment [1] (Donor1 cells (section 1.7 run), 1 million/mL, trehalose 3.3%, barely visible, very small clumps), the “time at which some clumping was observed” value came out at 20 min. For the same compound, the “time at which small clumps began to form” value in experiment [1] (setting [3]) and in experiment [1] (setting [4]) was 20 min in each case. Further, the “time at which clumps began to form” value in experiment [1] (Donor3 cells, 1 million/mL, trehalose 3.3%, clumps very small and barely visible) is 20 min. Further, the “reduction of cell clumping as compared to saline alone” value in experiment [1] (setting [5]) was “greatly reduces clumping”. The “size/appearance of clumps present” value in experiment [1] (setting [5]) is reported as “tiny generally spheroid particles barely visible to the human eye”. Further, the “viability by trypan blue staining” value in experiment [2] (Donor1 cells, end of clumping experiment, trehalose 3.3%, hydroxyethyl starch 25% in final preparation) is listed as 94%. The cell viability result in experiment [2] (summary, after exposure for an estimated duration of cell infusion) was “above 90%”.
